From the NIST ThermoML archive (doi:10.1016/j.fluid.2014.09.017)
Several values for one entry are separate records, joined by “and”; a condition that tells them apart may be missing. Equal entries are not always repeated.

Details: for vapor or sublimation pressure: Liquid, Closed cell (Static) method; for speed of sound: Gas, Cylindrical cavity resonance method

CC(C)C [2-methylpropane]
Details	vapor or sublimation pressure
258.92 K	91.82 kPa
264.24 K	112.99 kPa
265.67 K	119.32 kPa
267.2 K	126.35 kPa
273 K	156 kPa
273.15 K	156.85 kPa
275.31 K	169.22 kPa
278.94 K	191.71 kPa
280 K	198.68 kPa
281.24 K	207.12 kPa
282.81 K	218.08 kPa
284.02 K	226.9 kPa
285.82 K	240.51 kPa
287.25 K	251.7 kPa
288.67 K	263.24 kPa
290 K	274.38 kPa
291.96 K	291.5 kPa
291.99 K	291.68 kPa
293.5 K	305.47 kPa
294.79 K	317.56 kPa
296.3 K	332.18 kPa
299.97 K	369.83 kPa
301.05 K	381.52 kPa
302.76 K	400.6 kPa
304.46 K	420.14 kPa
305.97 K	438.06 kPa and 438.12 kPa
307.39 K	455.55 kPa
308.82 K	473.64 kPa
310 K	488.84 kPa
312.11 K	516.99 kPa
314.51 K	550.49 kPa
314.52 K	550.72 kPa
316.61 K	581.22 kPa
320 K	633.44 kPa
322 K	665.79 kPa
324.13 K	701.6 kPa
326 K	734.19 kPa and 734.22 kPa
326.58 K	744.59 kPa
328 K	770.36 kPa
328.63 K	781.99 kPa
330 K	807.67 kPa
332 K	846.32 kPa
332.15 K	849.38 kPa
334 K	886.42 kPa
334.71 K	900.88 kPa
338.87 K	989.76 kPa
342 K	1060.5 kPa
342.57 K	1073.8 kPa
344 K	1107.8 kPa
344.84 K	1128.1 kPa
347.48 K	1193.6 kPa
350 K	1258.8 kPa
354.89 K	1392.5 kPa
357.13 K	1457.2 kPa
360 K	1543.1 kPa
362.41 K	1618.3 kPa
364.65 K	1690.7 kPa
367.12 K	1773.1 kPa
370 K	1872.6 kPa
373.25 K	1990.5 kPa
375.82 K	2087.2 kPa
377.95 K	2170.2 kPa
380 K	2252.2 kPa
382.69 K	2363.4 kPa
385.14 K	2468.3 kPa
387.96 K	2593.6 kPa
390 K	2687.2 kPa
390.02 K	2688.3 kPa
392.64 K	2812.8 kPa
392.7 K	2815.5 kPa
394.37 K	2897.1 kPa
394.77 K	2917.1 kPa
397.49 K	3055 kPa
399.62 K	3166.9 kPa
400 K	3187.2 kPa
400.09 K	3191.9 kPa
400.19 K	3197.4 kPa
402.45 K	3320.9 kPa
402.46 K	3321.8 kPa
403.93 K	3404.5 kPa
404.71 K	3449.2 kPa
405 K	3465.7 kPa
405.99 K	3523.6 kPa

Details	speed of sound [m/s]
270 K, 54.63 kPa	203.09
270 K, 68.26 kPa	202.24
270 K, 75.99 kPa	201.75
270 K, 86.24 kPa	201.09
270 K, 94.7 kPa	200.54
270 K, 103.06 kPa	200
270 K, 111.76 kPa	199.42
280 K, 52.41 kPa	206.99
280 K, 62.45 kPa	206.43
280 K, 70.73 kPa	205.97
280 K, 82.68 kPa	205.28
280 K, 94.96 kPa	204.58
280 K, 108.81 kPa	203.77
280 K, 121.29 kPa	203.03
280 K, 133.05 kPa	202.32
280 K, 145.5 kPa	201.57
290 K, 58.49 kPa	210.38
290 K, 78.62 kPa	209.35
290 K, 97.12 kPa	208.38
290 K, 116.17 kPa	207.38
290 K, 139.15 kPa	206.14
290 K, 147.23 kPa	205.68
290 K, 158.57 kPa	205.07
290 K, 161.39 kPa	204.9
290 K, 173.83 kPa	204.22
290 K, 177.47 kPa	204
290 K, 193.67 kPa	203.09
300 K, 37.47 kPa	214.93
300 K, 57.39 kPa	214.01
300 K, 80.89 kPa	212.92
300 K, 107.72 kPa	211.65
300 K, 127.82 kPa	210.67
300 K, 150.12 kPa	209.58
300 K, 168.57 kPa	208.67
300 K, 201.3 kPa	207
300 K, 235.37 kPa	205.23
310 K, 45.64 kPa	218.03
310 K, 76.78 kPa	216.71
310 K, 107.37 kPa	215.4
310 K, 141.66 kPa	213.88
310 K, 178.43 kPa	212.23
310 K, 212.65 kPa	210.65
310 K, 247.33 kPa	209.01
310 K, 299.72 kPa	206.46
320 K, 57.93 kPa	220.96
320 K, 83.1 kPa	219.97
320 K, 109.17 kPa	218.94
320 K, 159.3 kPa	216.91
320 K, 192.01 kPa	215.56
320 K, 262.64 kPa	212.56
320 K, 289.64 kPa	211.37
320 K, 343.58 kPa	208.94
320 K, 383.31 kPa	207.1
330 K, 39.62 kPa	224.99
330 K, 69.47 kPa	223.92
330 K, 107.25 kPa	222.55
330 K, 151.31 kPa	220.92
330 K, 195.14 kPa	219.27
330 K, 246.95 kPa	217.27
330 K, 297.38 kPa	215.27
330 K, 339.74 kPa	213.55
330 K, 422.84 kPa	210.06
330 K, 480.1 kPa	207.54
